# Experimental data reported in patent US20060205826A1, “Method of using carotenoids in the prevention of cognitive decline and for other neuroprotection functions” (priority 2005, published 2006).
# Assays:
# Format in all cases: in vivo
# alloxan diabetic mice = assay: Hyperglycemic status (blood glucose) of alloxan diabetic mice; conditions: for glycemia: diabetic mice
# Experimental: (§1) Male albino mice were used throughout the study, housed in a environmentally regulated room on a dark-light cycle of 12 hours with free access to food and water. Principles of laboratory animal care (NIH publication no. 85-23, revised 1985) were followed, as well as specific Spanish regulations. Animals were made diabetic with a single subcutaneous injection of 200 mg alloxan/kg body weight (66 mg/ml) in 0.1 M citrate buffer, pH 4.5, at day 0 of the experiment. Control mice were injected with the same volume of vehicle also at day 0 of the experiment. Mice were identified as diabetic on the basis of blood glucose levels (higher than 16 mM at least 4 days after alloxan treatment). Animals were divided into subgroups as required by the experiment (control, control+lutein, diabetic, diabetic+lutein, diabetic+insulin, diabetic+insulin+lutein). […] Insulin treated animals were injected daily with 500 mU/g body weight since day 4 until the end of the experiment. Mice were killed by cervical dislocation on day 14, and hippocampus and retina were removed and homogenized in pre-chilled 0.2 M potassium phosphate buffer, pH 7.0. These homogenates were used to assay protein, GPx activity and MDA and GSH concentrations. Samples were kept frozen (−80° C.) until biochemical assays were performed. Blood was taken from the tail vein daily to assay blood glucose levels. Glycated hemoglobin was determined in blood samples obtained by heart puncture immediately before killing the animals.
# GSH = GSH content in hippocampus homogenate of diabetic mice; conditions: lutein 0.2 mg/kg p.o. or insulin 500 mU/g s.c. on days 4-13
# Experimental: Male albino mice were used throughout the study, housed in a environmentally regulated room on a dark-light cycle of 12 hours with free access to food and water. Principles of laboratory animal care (NIH publication no. 85-23, revised 1985) were followed, as well as specific Spanish regulations. Animals were made diabetic with a single subcutaneous injection of 200 mg alloxan/kg body weight (66 mg/ml) in 0.1 M citrate buffer, pH 4.5, at day 0 of the experiment. Control mice were injected with the same volume of vehicle also at day 0 of the experiment.
# Mice were identified as diabetic on the basis of blood glucose levels (higher than 16 mM at least 4 days after alloxan treatment). Animals were divided into subgroups as required by the experiment (control, control+lutein, diabetic, diabetic+lutein, diabetic+insulin, diabetic+insulin+lutein). Lutein was administered daily at a dose of 0.2 mg/kg p.o since day 4 after alloxan or citrate buffer injection until the end of the experiment. […] Glycated hemoglobin was determined in blood samples obtained by heart puncture immediately before killing the animals.
# The GSH content of eye homogenate was quatitated by the method of Reed et al. (Reed et al., 1980). […] These products are quickly separated by HPLC which allows the quantification of nanomolars levels of GSH.
# NF-κB = NF-κB activity (TransAm Kit) in retina and hippocampus of diabetic mice; conditions: 15 days post alloxan, lutein treatment before and after diabetes induction
# Experimental: as §1, with “These homogenates were used to assay protein, GPx activity and MDA and GSH concentrations. Samples were kept frozen (−80° C.) until biochemical assays were performed. Blood was taken from the tail vein daily to assay blood glucose levels.” left out, “animals. NF-κB activity was determined with TransAm Kit (Active Motif) that combines an ELISA test with an specific assay for transcription factors. […]” for “animals.”
smiles,measurement,setting,value
CC1=C[C@H](O)CC(C)(C)[C@H]1/C=C/C(C)=C/C=C/C(C)=C/C=C/C=C(C)/C=C/C=C(C)/C=C/C1=C(C)C[C@@H](O)CC1(C)C [Lutein],hyperglycemic status,"alloxan diabetic mice; alloxan diabetic mice, fourteen days after alloxan injection",did not alter
same,glycemia,alloxan diabetic mice; lutein 0.2 mg/kg p.o. on days 4-13 (hippocampus section),no effect
same,glycemia,alloxan diabetic mice; lutein 100 mg/kg p.o. on days 4-13 (retina section),no effect
same,GSH content in hippocampus homogenate,GSH,restored
same,NF-κB expression in hippocampus,NF-κB,decreased
same,NF-κB expression in retina,NF-κB,decreased
